Experimental data: PubChem BioAssay (NCI)
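Abbreviation: GI50, concentration required for 50% inhibition of growth. At the TGI there is no net growth.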

What was measured:
Assay in all cases: NCI-60 cell line screen, 384-well format
A549 NSCLC = test system: A549 NSCLC
BT-549 breast = test system: BT-549 breast
A498 renal = test system: A498 renal
MOLT-4 leukemia = test system: MOLT-4 leukemia
OVCAR-8 ovarian = test system: OVCAR-8 ovarian
NCI-H23 lung = test system: NCI-H23 lung
KM12 colon = test system: KM12 colon
SF-295 CNS = test system: SF-295 CNS
U251 glioblastoma = test system: U251 glioblastoma
K-562 leukemia = test system: K-562 leukemia
NCI-H522 lung = test system: NCI-H522 lung
SNB-75 CNS = test system: SNB-75 CNS
UACC-257 melanoma = test system: UACC-257 melanoma
RXF 393 renal = test system: RXF 393 renal
SF-539 CNS = test system: SF-539 CNS
OVCAR-4 ovarian = test system: OVCAR-4 ovarian
MDA-MB-435 melanoma = test system: MDA-MB-435 melanoma
RPMI-8226 leukemia = test system: RPMI-8226 leukemia
NCI-H226 lung = test system: NCI-H226 lung
TK-10 renal = test system: TK-10 renal
786-0 renal = test system: 786-0 renal
SW-620 colon = test system: SW-620 colon
SK-MEL-5 melanoma = test system: SK-MEL-5 melanoma
HCC-2998 colon = test system: HCC-2998 colon
IGROV1 ovarian = test system: IGROV1 ovarian
HT29 colon = test system: HT29 colon
SK-MEL-28 melanoma = test system: SK-MEL-28 melanoma
MDA-MB-468 breast = test system: MDA-MB-468 breast
LOX IMVI melanoma = test system: LOX IMVI melanoma
NCI/ADR-RES ovarian = test system: NCI/ADR-RES ovarian
ACHN renal = test system: ACHN renal
HCT-116 colon = test system: HCT-116 colon
MCF7 breast = test system: MCF7 breast
SK-OV-3 ovarian = test system: SK-OV-3 ovarian
COLO 205 colon = test system: COLO 205 colon
PC-3 prostate = test system: PC-3 prostate
HL-60(TB) leukemia = test system: HL-60(TB) leukemia
DU-145 prostate = test system: DU-145 prostate
NCI-H460 NSCLC = test system: NCI-H460 NSCLC
EKVX NSCLC = test system: EKVX NSCLC
NCI-H322M lung = test system: NCI-H322M lung
CAKI-1 renal = test system: CAKI-1 renal
UACC-62 melanoma = test system: UACC-62 melanoma
SNB-19 CNS = test system: SNB-19 CNS
HCT-15 colon = test system: HCT-15 colon
SK-MEL-2 melanoma = test system: SK-MEL-2 melanoma
SN12C renal = test system: SN12C renal
CCRF-CEM leukemia = test system: CCRF-CEM leukemia
HOP-92 NSCLC = test system: HOP-92 NSCLC
MALME-3M melanoma = test system: MALME-3M melanoma
M14 melanoma = test system: M14 melanoma
HOP-62 NSCLC = test system: HOP-62 NSCLC
SF-268 CNS = test system: SF-268 CNS
OVCAR-3 ovarian = test system: OVCAR-3 ovarian
HS 578T breast = test system: HS 578T breast

Compound: Nc1cc2c(cc1Cl)C(=O)c1ccccc1C2=O
- GI50 (A549 NSCLC): 6.15 µM
- TGI (A549 NSCLC): 19.9 µM
- GI50 (BT-549 breast): 2.67 µM
- TGI (BT-549 breast): 8.24 µM
- GI50 (A498 renal): 2.18 µM
- TGI (A498 renal): 5.32 µM
- GI50 (MOLT-4 leukemia): 23.8 µM
- TGI (MOLT-4 leukemia): 83.7 µM
- GI50 (OVCAR-8 ovarian): 4.16 µM
- TGI (OVCAR-8 ovarian): 13.8 µM
- GI50 (NCI-H23 lung): 2.65 µM
- TGI (NCI-H23 lung): 11.3 µM
- GI50 (KM12 colon): 11.1 µM
- TGI (KM12 colon): 24 µM
- GI50 (SF-295 CNS): 2.86 µM
- TGI (SF-295 CNS): 9.19 µM
- GI50 (U251 glioblastoma): 3.21 µM
- TGI (U251 glioblastoma): 11 µM
- GI50 (K-562 leukemia): 24.9 µM
- TGI (K-562 leukemia): 74.7 µM
- GI50 (NCI-H522 lung): 10.2 µM
- TGI (NCI-H522 lung): 21.9 µM
- GI50 (SNB-75 CNS): 2.92 µM
- TGI (SNB-75 CNS): 7.13 µM
- GI50 (UACC-257 melanoma): 17.6 µM
- TGI (UACC-257 melanoma): 52 µM
- GI50 (RXF 393 renal): 4.01 µM
- TGI (RXF 393 renal): 15 µM
- GI50 (SF-539 CNS): 1.66 µM
- TGI (SF-539 CNS): 3.06 µM
- GI50 (OVCAR-4 ovarian): 1.1 µM
- TGI (OVCAR-4 ovarian): 9.47 µM
- GI50 (MDA-MB-435 melanoma): 19.9 µM
- TGI (MDA-MB-435 melanoma): 44.3 µM
- GI50 (RPMI-8226 leukemia): 3.13 µM
- TGI (RPMI-8226 leukemia): 12 µM
- GI50 (NCI-H226 lung): 1.86 µM
- TGI (NCI-H226 lung): 17 µM
- GI50 (TK-10 renal): 2.63 µM
- TGI (TK-10 renal): 12.9 µM
- GI50 ([…]-0 renal): 2.35 µM
- TGI (786-0 renal): 8.08 µM
- GI50 (SW-620 colon): 11.8 µM
- TGI (SW-620 colon): 25.1 µM
- GI50 (SK-MEL-5 melanoma): 3.59 µM
- TGI (SK-MEL-5 melanoma): 50.6 µM
- GI50 (HCC-2998 colon): 11 µM
- TGI (HCC-2998 colon): > 100 µM
- GI50 (IGROV1 ovarian): 1.33 µM
- TGI (IGROV1 ovarian): 17.9 µM
- GI50 (HT29 colon): 26 µM
- TGI (HT29 colon): > 100 µM
- GI50 (SK-MEL-28 melanoma): 17.8 µM
- TGI (SK-MEL-28 melanoma): 42.2 µM
- GI50 (MDA-MB-468 breast): 0.228 µM
- TGI (MDA-MB-468 breast): 9.07 µM
- GI50 (LOX IMVI melanoma): 0.276 µM
- TGI (LOX IMVI melanoma): 16.4 µM
- GI50 (NCI/ADR-RES ovarian): 4.35 µM
- TGI (NCI/ADR-RES ovarian): 17.5 µM
- GI50 (ACHN renal): 2.47 µM
- TGI (ACHN renal): 12.7 µM
- GI50 (HCT-116 colon): 3.1 µM
- TGI (HCT-116 colon): 12.3 µM
- GI50 (MCF7 breast): 11.1 µM
- TGI (MCF7 breast): 23.3 µM
- GI50 (SK-OV-3 ovarian): 4.81 µM
- TGI (SK-OV-3 ovarian): 18.4 µM
- GI50 (COLO 205 colon): 10.4 µM
- TGI (COLO 205 colon): 22.6 µM
- GI50 (PC-3 prostate): 10.1 µM
- TGI (PC-3 prostate): 22 µM
- GI50 (HL-60(TB) leukemia): > 100 µM
- TGI (HL-60(TB) leukemia): > 100 µM
- GI50 (DU-145 prostate): 14.3 µM
- TGI (DU-145 prostate): 29 µM
- GI50 (NCI-H460 NSCLC): 3.76 µM
- TGI (NCI-H460 NSCLC): 13.9 µM
- GI50 (EKVX NSCLC): 6.17 µM
- TGI (EKVX NSCLC): 20.6 µM
- GI50 (NCI-H322M lung): 6.15 µM
- TGI (NCI-H322M lung): 24 µM
- GI50 (CAKI-1 renal): 13.2 µM
- TGI (CAKI-1 renal): 26.3 µM
- GI50 (UACC-62 melanoma): 7.21 µM
- TGI (UACC-62 melanoma): 20.9 µM
- GI50 (SNB-19 CNS): 3.59 µM
- TGI (SNB-19 CNS): 12.8 µM
- GI50 (HCT-15 colon): 15 µM
- TGI (HCT-15 colon): 32.3 µM
- GI50 (SK-MEL-2 melanoma): 2.56 µM
- TGI (SK-MEL-2 melanoma): 7.19 µM
- GI50 (SN12C renal): 4.44 µM
- TGI (SN12C renal): 16.9 µM
- GI50 (CCRF-CEM leukemia): 71 µM
- TGI (CCRF-CEM leukemia): > 100 µM
- GI50 (HOP-92 NSCLC): 3.85 µM
- TGI (HOP-92 NSCLC): 13.7 µM
- GI50 (MALME-3M melanoma): 17.2 µM
- TGI (MALME-3M melanoma): 47.8 µM
- GI50 (M14 melanoma): 14.2 µM
- TGI (M14 melanoma): 30.4 µM
- GI50 (HOP-62 NSCLC): 2.34 µM
- TGI (HOP-62 NSCLC): 4.24 µM
- GI50 (SF-268 CNS): 11.6 µM
- TGI (SF-268 CNS): 24 µM
- GI50 (OVCAR-3 ovarian): 6.94 µM
- TGI (OVCAR-3 ovarian): 20.4 µM
- GI50 (HS 578T breast): 4.51 µM
- TGI (HS 578T breast): 15.8 µM
